This passage reports EC50 results from US9604964B2, “Dihydropyrazole GPR40 modulators” (BRISTOL-MYERS SQUIBB COMPANY, priority 2012, dated 2017).

This assay deals with human GPR40 (Homo sapiens, UniProt O14842). The assay can be described thus: FDSS-based intracellular calcium assay (Human GPR40 in vitro assay). The settings on record: intracellular Ca2+ response, cells expressing GPR40; read-out: hGPR40 EC50. On the set-up: 3xFLAG; expressed in transfected cells. In kind it is cell-based. As to the method:
FDSS-based Intracellular Calcium Assay
Compounds are dissolved in DMSO and diluted to desired concentrations with assay buffer and added to the cells as 3× solution (20 μL per well). Run fluorescence/luminescence reader FDSS (Hamamatsu) to read intracellular Ca^2+ response.

Chain of human GPR40 (O14842 whole entry): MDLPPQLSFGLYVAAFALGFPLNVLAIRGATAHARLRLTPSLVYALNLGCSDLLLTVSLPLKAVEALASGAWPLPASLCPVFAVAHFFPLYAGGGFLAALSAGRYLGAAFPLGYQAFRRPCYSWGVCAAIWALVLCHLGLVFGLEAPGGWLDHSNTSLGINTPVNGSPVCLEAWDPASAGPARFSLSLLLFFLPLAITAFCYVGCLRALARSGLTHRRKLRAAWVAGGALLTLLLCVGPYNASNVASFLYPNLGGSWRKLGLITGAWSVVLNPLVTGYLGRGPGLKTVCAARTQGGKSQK

Take `COc1ccc(F)c(N2CCCC(Oc3ccc(N4N=C(C(F)(F)F)[C@@H](C)[C@@H]4CC(=O)O)cc3)C2)c1` (mixture of isomers) [Example B26, 2-((4S,5S)-1-(4-((1-(2-fluoro-5-methoxyphenyl)piperidin-3-yl)oxy)phenyl)-4-methyl-3-(trifluoromethyl)-4,5-dihydro-1H-pyrazol-5-yl)acetic acid]: the EC50 was 4230 nM.
In the case of `CCOc1ccc(F)c(N2CCC(Cc3ccc(N4N=C(C(F)(F)F)[C@@H](C)[C@@H]4CC(=O)O)cc3)C(C)C2)c1` (single isomer, unassigned) [Example 3 (Isomer 1)], the EC50 came to 3220 nM.
Take `CCOc1ccc(F)c(N2CCC(Cc3ccc(N4N=C(C(F)(F)F)[C@@H](C)[C@@H]4CC(=O)O)cc3)C(C)C2)c1` (single isomer, unassigned) [Example 3 (Isomer 2)]: the EC50 is 471 nM.
Consider `CCOc1ccc(F)c(N2CCC(Cc3ccc(N4N=C(C(F)(F)F)[C@@H](C)[C@@H]4CC(=O)O)cc3)C(C)C2)c1` (single isomer, unassigned) [Example 3 (Isomer 3)], for which the EC50 came to 1140 nM.
In the case of `CCOc1ccc(F)c(N2CCC(Cc3ccc(N4N=C(C(F)(F)F)[C@@H](C)[C@@H]4CC(=O)O)cc3)C(C)C2)c1` (single isomer, unassigned) [Example 3 (Isomer 4)] it was 672 nM; in that of `CCOc1ccc(F)c(N2CCC(Oc3ccc(N4N=C(C(F)(F)F)[C@@H](C)[C@@H]4CC(=O)O)cc3)C(Cc3ccccc3)C2)c1` (single isomer, unassigned) [Example 28 (Isomer 1)], 132 nM; in that of `CCOc1ccc(F)c(N2CCC(Oc3ccc(N4N=C(C(F)(F)F)[C@@H](C)[C@@H]4CC(=O)O)cc3)C(OC)C2)c1` (single isomer, unassigned) [Example 31 (Isomer 2)], 910 nM.
In the case of `COc1cc(N2CCC(Oc3ccc(N4N=C(C(F)(F)F)[C@@H](C)[C@@H]4CC(=O)O)cn3)C(C)C2)c(Cl)cn1` (single isomer, unassigned) [Example 103 Isomer 1], the EC50 stood at 533 nM.
Regarding `COCC1CN(c2cc(OC)ncc2Cl)CCC1Oc1ccc(N2N=C(C(F)(F)F)[C@@H](C)[C@@H]2CC(=O)O)cc1` (single isomer, unassigned) [Example B3, Isomer 1], the EC50 came to 352 nM.
In the case of `COCC1CN(c2cc(OC)ncc2Cl)CCC1Oc1ccc(N2N=C(C(F)(F)F)[C@@H](C)[C@@H]2CC(=O)O)cc1` (single isomer, unassigned) [Example B3, Isomer 2], the EC50 was 768 nM.
In the case of `COCC1CN(c2cc(OC)ncc2Cl)CCC1Oc1ccc(N2N=C(C(F)(F)F)[C@@H](C)[C@@H]2CC(=O)O)cc1` (single isomer, unassigned) [Example B3, Isomer 3] it was 2000 nM.
In the case of `CCOc1ccc(F)c(N2CCC(Oc3ccc(N4N=C(C#N)C(C)C4CC(=O)O)cc3)CC2)c1` (single isomer, unassigned) [Example B5 Isomer 1, 2-(3-cyano-1-(4-((1-(5-ethoxy-2-fluorophenyl)piperidin-4-yl)oxy)phenyl)-4-methyl-4,5-dihydro-1H-pyrazol-5-yl)acetic acid] it was 389 nM; in that of `CCOc1ccc(F)c(N2CCC(Oc3ccc(N4N=C(C#N)C(C)C4CC(=O)O)cc3)CC2)c1` (single isomer, unassigned) [Example B5, Isomer 2, 2-(3-cyano-1-(4-((1-(5-ethoxy-2-fluorophenyl)piperidin-4-yl)oxy)phenyl)-4-methyl-4,5-dihydro-1H-pyrazol-5-yl)acetic acid], 4950 nM; in that of `COc1cc(N2CCC(Oc3ccc(N4N=C(C#N)C(C)C4CC(=O)O)cc3)C(C)C2)c(Cl)cn1` (single isomer, unassigned) [Example B6, Isomer 1, 2-(1-(4-((1-(5-chloro-2-methoxypyridin-4-yl)-3-methylpiperidin-4-yl)oxy)phenyl)-3-cyano-4-methyl-4,5-dihydro-1H-pyrazol-5-yl)acetic acid], 303 nM.
In the case of `COc1cc(N2CCC(Oc3ccc(N4N=C(C#N)C(C)C4CC(=O)O)cc3)C(C)C2)c(Cl)cn1` (single isomer, unassigned) [Example B6, Isomer 2, 2-(1-(4-((1-(5-chloro-2-methoxypyridin-4-yl)-3-methylpiperidin-4-yl)oxy)phenyl)-3-cyano-4-methyl-4,5-dihydro-1H-pyrazol-5-yl)acetic acid], the EC50 turned out to be 4850 nM.
For `CCOc1ccc(F)c(N2CCC(Oc3ccc(N4N=C(C#N)C(C)C4CC(=O)O)cc3)C(C)C2)c1` (single isomer, unassigned) [Example B7, Isomer 1, 2-(3-Cyano-1-(4-((1-(5-ethoxy-2-fluorophenyl)-3-methylpiperidin-4-yl)oxy)phenyl)-4-methyl-4,5-dihydro-1H-pyrazol-5-yl)acetic acid], the EC50 was determined as 394 nM.
With `CCOc1ccc(F)c(N2CCC(Oc3ccc(N4N=C(C#N)C(C)C4CC(=O)O)cc3)C(C)C2)c1` (single isomer, unassigned) [Example B7, Isomer 2, 2-(3-Cyano-1-(4-((1-(5-ethoxy-2-fluorophenyl)-3-methylpiperidin-4-yl)oxy)phenyl)-4-methyl-4,5-dihydro-1H-pyrazol-5-yl)acetic acid], the EC50 is 5790 nM.
As to `COc1ccc(F)c(N2C3CCC2CC(Oc2ccc(N4N=C(C(F)(F)F)[C@@H](C)[C@@H]4CC(=O)O)cc2)C3)c1` (stereo partly drawn) [Example 2, 2-((4S,5S)-1-(4-((8-(2-fluoro-5-methoxyphenyl)-8-azabicyclo[3.2.1]octan-3-yl)oxy)phenyl)-4-methyl-3-(trifluoromethyl)-4,5-dihydro-1H-pyrazol-5-yl)acetic acid], the EC50 was found to be 644 nM.
As for `C[C@@H]1C(C(F)(F)F)=NN(c2ccc(OC3CCN(c4cc5c(cc4Cl)CCO5)CC3)cc2)[C@H]1CC(=O)O` [Example 4, 2-((4S,5S)-1-(4-((1-(5-chloro-2,3-dihydrobenzofuran-6-yl)piperidin-4-yl)oxy)phenyl)-4-methyl-3-(trifluoromethyl)-4,5-dihydro-1H-pyrazol-5-yl)acetic acid], the EC50 came to 1040 nM.
In the case of `CCCc1cnc(N2CCC(Oc3ccc(N4N=C(C(F)(F)F)[C@@H](C)[C@@H]4CC(=O)O)cc3)CC2)nc1` [Example 5, 2-((4S,5S)-4-methyl-1-(4-((1-(5-propylpyrimidin-2-yl)piperidin-4-yl)oxy)phenyl)-3-(trifluoromethyl)-4,5-dihydro-1H-pyrazol-5-yl)acetic acid] it was 5810 nM.
Turning to `C[C@@H]1C(C(F)(F)F)=NN(c2ccc(OC3CCN(c4ccc(C(F)(F)F)cn4)CC3)cc2)[C@H]1CC(=O)O` [Example 6, 2-((4S,5S)-4-methyl-3-(trifluoromethyl)-1-(4-((1-(5-(trifluoromethyl)pyridin-2-yl)piperidin-4-yl)oxy)phenyl)-4,5-dihydro-1H-pyrazol-5-yl)acetic acid], the EC50 was determined as 7520 nM.
For the compound `C[C@@H]1C(C(F)(F)F)=NN(c2ccc(OC3CCN(c4ncc(Cl)cn4)CC3)cc2)[C@H]1CC(=O)O` [Example 7, 2-((4S,5S)-1-(4-((1-(5-chloropyrimidin-2-yl)piperidin-4-yl)oxy)phenyl)-4-methyl-3-(trifluoromethyl)-4,5-dihydro-1H-pyrazol-5-yl)acetic acid], the EC50 stood at 4480 nM.
In the case of `CC1CN(c2cc(OCC(F)(F)F)ccc2F)CCC1Oc1ccc(N2N=C(C(F)(F)F)[C@@H](C)[C@@H]2CC(=O)O)cc1` (stereo partly drawn) [Example 11, 2-((4S,5S)-1-(4-((1-(2-fluoro-5-(2,2,2-trifluoroethoxy)phenyl)-3-methylpiperidin-4-yl)oxy)phenyl)-4-methyl-3-(trifluoromethyl)-4,5-dihydro-1H-pyrazol-5-yl)acetic acid] it was 1080 nM; in that of `C[C@@H]1C(C(F)(F)F)=NN(c2ccc(OC3CCN(c4nccs4)CC3)cc2)[C@H]1CC(=O)O` [Example 13, 2-((4S,5S)-4-methyl-1-(4-((1-(thiazol-2-yl)piperidin-4-yl)oxy)phenyl)-3-(trifluoromethyl)-4,5-dihydro-1H-pyrazol-5-yl)acetic acid], 1690 nM; in that of `C[C@@H]1C(C(F)(F)F)=NN(c2ccc(OC3CCN(C(=O)OCc4ccccc4)CC3)cc2)[C@H]1CC(=O)O` [Example 14, 2-((4S,5S)-1-(4-((1-((benzyloxy)carbonyl)piperidin-4-yl)oxy)phenyl)-4-methyl-3-(trifluoromethyl)-4,5-dihydro-1H-pyrazol-5-yl)acetic acid], 4270 nM.
On to `C[C@@H]1C(C(F)(F)F)=NN(c2ccc(OC3CCN(C(=O)OC(C)(C)C)CC3)cc2)[C@H]1CC(=O)O` [Example 15, 2-((4S,5S)-1-(4-((1-(tert-butoxycarbonyl)piperidin-4-yl)oxy)phenyl)-4-methyl-3-(trifluoromethyl)-4,5-dihydro-1H-pyrazol-5-yl)acetic acid], for which the EC50 was 1720 nM.
On to `C[C@@H]1C(C(F)(F)F)=NN(c2ccc(OC3CCN(c4cc(OC5CCCC5)cc(F)c4F)CC3)cc2)[C@H]1CC(=O)O` [Example 19, 2-((4S,5S)-1-(4-((1-(5-(cyclopentyloxy)-2,3-difluorophenyl)piperidin-4-yl)oxy)phenyl)-4-methyl-3-(trifluoromethyl)-4,5-dihydro-1H-pyrazol-5-yl)acetic acid], for which the EC50 turned out to be 4820 nM.
`C[C@@H]1C(C(F)(F)F)=NN(c2ccc(OC3CCN(c4nccc(C(F)(F)F)n4)CC3)cc2)[C@H]1CC(=O)O` [Example 20, 2-((4S,5S)-4-methyl-3-(trifluoromethyl)-1-(4-((1-(4-(trifluoromethyl)pyrimidin-2-yl)piperidin-4-yl)oxy)phenyl)-4,5-dihydro-1H-pyrazol-5-yl)acetic acid]: the EC50 was 1420 nM.
On to `COc1ccc(F)c(N2CCCC(Oc3ccc(N4N=C(C(F)(F)F)[C@@H](C)[C@@H]4CC(=O)O)cc3)CC2)c1` (stereo partly drawn) [Example 23, 2-((4S,5S)-1-(4-((1-(2-fluoro-5-methoxyphenyl)azepan-4-yl)oxy)phenyl)-4-methyl-3-(trifluoromethyl)-4,5-dihydro-1H-pyrazol-5-yl)acetic acid], for which the EC50 worked out at 3020 nM.
